{"source": "ChEMBL document CHEMBL5113538", "about": "“Discovery of Novel Allosteric EGFR L858R Inhibitors for the Treatment of Non-Small-Cell Lung Cancer as a Single Agent or in Combination with Osimertinib” (J Med Chem, 2022)", "key": {"L-363": {"system": "L-363", "assay": "Antiproliferative activity against human L-363 cells assessed as cell growth inhibition", "assay_type": "functional"}, "[1]": {"assay": "Tlast in CD1 mouse at 10 mg/kg, po administered as single dose measured after 24 hrs by LC-MS/MS analysis", "assay_type": "ADME, organism-based", "settings": "in vivo"}, "SU-DHL-6": {"system": "SU-DHL-6", "assay": "Antiproliferative activity against human SU-DHL-6 cells assessed as cell growth inhibition", "assay_type": "functional"}, "Glucocorticoid receptor": {"target": "T1, Glucocorticoid receptor (Homo sapiens, UniProt P04150)", "T1 sequence (P04150 whole entry)": "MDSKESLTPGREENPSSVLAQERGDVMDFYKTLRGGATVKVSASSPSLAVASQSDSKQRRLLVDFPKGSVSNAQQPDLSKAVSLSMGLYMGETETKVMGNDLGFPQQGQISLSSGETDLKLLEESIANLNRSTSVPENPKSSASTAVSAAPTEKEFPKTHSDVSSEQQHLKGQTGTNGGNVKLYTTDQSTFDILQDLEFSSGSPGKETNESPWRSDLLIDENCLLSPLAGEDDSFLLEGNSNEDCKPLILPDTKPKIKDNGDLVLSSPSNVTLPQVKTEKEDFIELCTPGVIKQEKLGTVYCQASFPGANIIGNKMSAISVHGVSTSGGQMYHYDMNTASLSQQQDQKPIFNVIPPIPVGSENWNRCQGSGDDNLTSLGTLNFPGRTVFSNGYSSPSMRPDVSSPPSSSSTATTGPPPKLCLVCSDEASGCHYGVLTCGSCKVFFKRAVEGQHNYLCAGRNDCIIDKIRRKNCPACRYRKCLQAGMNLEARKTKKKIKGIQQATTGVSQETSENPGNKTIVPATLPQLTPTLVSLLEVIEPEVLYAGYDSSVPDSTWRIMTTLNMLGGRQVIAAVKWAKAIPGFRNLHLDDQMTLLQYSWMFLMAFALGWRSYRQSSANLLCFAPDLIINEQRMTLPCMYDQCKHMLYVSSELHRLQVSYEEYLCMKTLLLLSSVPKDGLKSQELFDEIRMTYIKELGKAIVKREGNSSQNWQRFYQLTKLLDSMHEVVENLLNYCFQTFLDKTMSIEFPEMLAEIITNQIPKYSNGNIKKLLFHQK", "assay": "Inhibition of glucocorticoid receptor (unknown origin)"}, "[2]": {"assay": "Toxicity in Balb/c nude mouse allografted with mouse BaF3 cells harboring EGFR L858R/C797S mutant assessed as tolerability at 10 mg/kg, po administered twice daily for 20 days", "assay_type": "organism-based", "settings": "in vivo, 480 h, time 20 day"}, "[3]": {"assay": "AUC (0 to infinity) in CD1 mouse at 1 mg/kg, iv administered as single dose measured after 24 hrs by LC-MS/MS analysis", "assay_type": "ADME, organism-based", "set-up": "time 24 hrs, dose 1 mg/kg, route iv", "settings": "in vivo"}, "[4]": {"assay": "Volume of distribution at steady state in CD1 mouse at 1 mg/kg, iv administered as single dose measured after 24 hrs by LC-MS/MS analysis", "assay_type": "ADME, organism-based", "settings": "in vivo, read-out: Vdss"}, "NCI-H292": {"system": "NCI-H292", "assay": "Antiproliferative activity against human NCI-H292 cells assessed as cell growth inhibition", "assay_type": "functional"}, "[5]": {"target": "Angiotensin-converting enzyme (Homo sapiens, UniProt P12821)", "sequence (P12821 whole entry)": "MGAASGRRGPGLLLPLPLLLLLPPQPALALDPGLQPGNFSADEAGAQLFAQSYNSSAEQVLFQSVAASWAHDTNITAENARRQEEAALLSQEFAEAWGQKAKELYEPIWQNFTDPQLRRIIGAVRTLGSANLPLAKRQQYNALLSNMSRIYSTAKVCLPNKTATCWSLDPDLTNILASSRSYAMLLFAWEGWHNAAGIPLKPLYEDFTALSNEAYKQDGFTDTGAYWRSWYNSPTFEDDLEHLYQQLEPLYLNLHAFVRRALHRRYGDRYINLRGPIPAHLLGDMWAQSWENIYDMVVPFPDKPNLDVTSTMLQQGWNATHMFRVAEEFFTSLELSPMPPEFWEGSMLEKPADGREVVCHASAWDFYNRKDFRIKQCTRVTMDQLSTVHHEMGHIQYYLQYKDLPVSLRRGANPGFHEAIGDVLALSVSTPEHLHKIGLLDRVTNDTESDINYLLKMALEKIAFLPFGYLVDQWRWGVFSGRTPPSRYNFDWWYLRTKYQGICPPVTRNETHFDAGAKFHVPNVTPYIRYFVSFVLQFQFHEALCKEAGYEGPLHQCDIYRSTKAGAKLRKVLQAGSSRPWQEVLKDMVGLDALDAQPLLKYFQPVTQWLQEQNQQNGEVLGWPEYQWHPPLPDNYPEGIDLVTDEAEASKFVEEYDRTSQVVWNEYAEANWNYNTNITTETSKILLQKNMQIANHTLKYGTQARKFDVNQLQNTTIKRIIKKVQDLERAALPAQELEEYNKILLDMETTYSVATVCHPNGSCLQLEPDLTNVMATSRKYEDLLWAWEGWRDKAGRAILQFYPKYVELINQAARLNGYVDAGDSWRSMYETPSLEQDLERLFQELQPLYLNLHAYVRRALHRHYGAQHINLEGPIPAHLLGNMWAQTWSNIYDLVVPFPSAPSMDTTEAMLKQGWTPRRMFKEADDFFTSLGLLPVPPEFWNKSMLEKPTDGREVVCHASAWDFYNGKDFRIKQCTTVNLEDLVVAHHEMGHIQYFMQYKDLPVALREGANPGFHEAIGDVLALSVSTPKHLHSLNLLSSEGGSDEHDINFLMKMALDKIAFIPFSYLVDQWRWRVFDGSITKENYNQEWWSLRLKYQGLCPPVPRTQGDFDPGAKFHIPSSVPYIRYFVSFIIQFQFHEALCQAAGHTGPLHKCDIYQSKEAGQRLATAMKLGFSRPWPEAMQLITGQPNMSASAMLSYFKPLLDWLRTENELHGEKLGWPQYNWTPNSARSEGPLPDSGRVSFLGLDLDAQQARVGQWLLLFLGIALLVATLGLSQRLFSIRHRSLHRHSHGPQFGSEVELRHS", "assay": "Inhibition of angiotensin-converting enzyme (unknown origin)"}, "[6]": {"assay": "Tmax in CD1 mouse at 10 mg/kg, po administered as single dose measured after 24 hrs by LC-MS/MS analysis", "assay_type": "ADME, organism-based", "settings": "in vivo"}, "[7]": {"assay": "Clearance in CD1 mouse at 1 mg/kg, iv administered as single dose measured after 24 hrs by LC-MS/MS analysis", "assay_type": "ADME, organism-based", "settings": "in vivo"}, "[8]": {"target": "Epidermal growth factor receptor (Homo sapiens, UniProt P00533, C797S/L858R)", "sequence (P00533 25-1210 C797S/L858R limits assumed)": "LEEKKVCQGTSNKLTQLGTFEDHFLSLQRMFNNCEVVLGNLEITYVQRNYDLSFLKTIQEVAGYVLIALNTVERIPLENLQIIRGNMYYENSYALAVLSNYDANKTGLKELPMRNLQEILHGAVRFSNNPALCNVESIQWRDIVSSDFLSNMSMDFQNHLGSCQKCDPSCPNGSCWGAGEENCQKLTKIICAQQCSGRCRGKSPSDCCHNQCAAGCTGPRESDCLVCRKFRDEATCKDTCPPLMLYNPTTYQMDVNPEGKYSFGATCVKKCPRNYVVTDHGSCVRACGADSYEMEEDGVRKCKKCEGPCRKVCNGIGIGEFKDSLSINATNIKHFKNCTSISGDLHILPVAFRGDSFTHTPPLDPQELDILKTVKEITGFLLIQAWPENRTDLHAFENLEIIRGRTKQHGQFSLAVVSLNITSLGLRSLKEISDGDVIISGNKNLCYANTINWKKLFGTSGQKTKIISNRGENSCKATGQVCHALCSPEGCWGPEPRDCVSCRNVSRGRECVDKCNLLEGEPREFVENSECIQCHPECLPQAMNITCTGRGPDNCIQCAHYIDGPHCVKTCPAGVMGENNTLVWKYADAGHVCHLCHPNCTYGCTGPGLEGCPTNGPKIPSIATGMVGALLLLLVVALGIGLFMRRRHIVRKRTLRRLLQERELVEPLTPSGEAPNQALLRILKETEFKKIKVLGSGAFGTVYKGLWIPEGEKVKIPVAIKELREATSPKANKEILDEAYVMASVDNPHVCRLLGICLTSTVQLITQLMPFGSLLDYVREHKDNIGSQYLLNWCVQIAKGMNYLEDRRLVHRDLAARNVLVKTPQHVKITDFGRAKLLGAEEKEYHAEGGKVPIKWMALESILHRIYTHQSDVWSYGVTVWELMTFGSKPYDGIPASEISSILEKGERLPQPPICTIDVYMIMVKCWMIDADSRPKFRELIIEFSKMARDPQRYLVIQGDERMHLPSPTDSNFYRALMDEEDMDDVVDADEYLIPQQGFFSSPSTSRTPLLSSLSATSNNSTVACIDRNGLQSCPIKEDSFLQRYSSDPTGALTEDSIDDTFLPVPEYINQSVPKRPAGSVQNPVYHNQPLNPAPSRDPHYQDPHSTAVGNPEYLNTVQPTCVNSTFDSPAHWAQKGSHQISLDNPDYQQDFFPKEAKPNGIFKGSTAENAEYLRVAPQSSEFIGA"}, "[9]": {"target": "Epidermal growth factor receptor (Homo sapiens, UniProt P00533, C797S/L858R/T790M)", "sequence (P00533 25-1210 T790M/C797S/L858R limits assumed)": "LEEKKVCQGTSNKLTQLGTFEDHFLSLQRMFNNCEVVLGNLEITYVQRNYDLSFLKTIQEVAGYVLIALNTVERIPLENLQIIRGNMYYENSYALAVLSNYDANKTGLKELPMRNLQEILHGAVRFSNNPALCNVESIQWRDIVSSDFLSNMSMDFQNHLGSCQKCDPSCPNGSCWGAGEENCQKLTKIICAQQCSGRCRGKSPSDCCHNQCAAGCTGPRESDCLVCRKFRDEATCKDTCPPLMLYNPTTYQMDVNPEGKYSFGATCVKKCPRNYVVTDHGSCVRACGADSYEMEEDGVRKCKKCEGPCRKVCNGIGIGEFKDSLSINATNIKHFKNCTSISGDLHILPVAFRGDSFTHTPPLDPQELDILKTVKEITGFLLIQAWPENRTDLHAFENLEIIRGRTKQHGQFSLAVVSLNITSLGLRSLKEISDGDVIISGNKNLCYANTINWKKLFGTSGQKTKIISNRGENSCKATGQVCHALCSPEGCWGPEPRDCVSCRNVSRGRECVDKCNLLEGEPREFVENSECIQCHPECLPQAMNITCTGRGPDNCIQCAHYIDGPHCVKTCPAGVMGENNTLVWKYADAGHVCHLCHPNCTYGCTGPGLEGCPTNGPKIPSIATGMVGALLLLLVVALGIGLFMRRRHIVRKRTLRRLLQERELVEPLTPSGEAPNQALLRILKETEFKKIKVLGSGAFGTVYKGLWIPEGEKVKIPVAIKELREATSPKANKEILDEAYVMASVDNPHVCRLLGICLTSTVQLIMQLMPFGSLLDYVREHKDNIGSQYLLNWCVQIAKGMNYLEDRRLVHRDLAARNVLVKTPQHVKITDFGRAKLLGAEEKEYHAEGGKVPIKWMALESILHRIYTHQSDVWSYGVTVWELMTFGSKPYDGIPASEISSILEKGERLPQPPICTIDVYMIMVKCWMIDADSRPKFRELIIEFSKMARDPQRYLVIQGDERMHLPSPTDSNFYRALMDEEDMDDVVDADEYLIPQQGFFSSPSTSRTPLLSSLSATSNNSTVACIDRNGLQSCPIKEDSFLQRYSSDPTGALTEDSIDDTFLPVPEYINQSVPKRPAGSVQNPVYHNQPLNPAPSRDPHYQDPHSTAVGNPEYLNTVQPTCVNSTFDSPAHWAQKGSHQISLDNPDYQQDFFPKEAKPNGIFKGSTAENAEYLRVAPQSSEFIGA"}, "[10]": {"assay": "AUC(0 to t) in CD1 mouse at 10 mg/kg, po administered as single dose measured after 24 hrs by LC-MS/MS analysis", "assay_type": "ADME, organism-based", "set-up": "time 24 hrs, dose 10 mg/kg, route po", "settings": "in vivo"}, "[11]": {"assay": "Toxicity in Balb/c nude mouse allografted with mouse BaF3 cells harboring EGFR L858R/C797S mutant assessed as change in body weight at 10 mg/kg, po administered twice daily for 20 days", "assay_type": "organism-based", "settings": "in vivo, 480 h, time 20 day"}}, "data": [{"smiles": "Cc1c(C#Cc2ccc(CN3CCC(CO)CC3)cc2)cc(C(F)F)c2cn(C(C(=O)Nc3nccs3)c3ncn4c3CCC43CC3)nc12", "note": "(stereo not given)", "values": [{"measurement": "GI50", "setting": "L-363", "result": 1.32, "unit": "µM"}, {"measurement": "Tlast", "setting": "[1]", "result": 24, "unit": "h"}, {"measurement": "GI50", "setting": "SU-DHL-6", "result": 1.46, "unit": "µM"}, {"measurement": "IC50", "setting": "Glucocorticoid receptor", "result": 3.2, "unit": "µM"}, {"measurement": "Activity", "setting": "[2]", "result": "Non-Toxic"}, {"measurement": "AUC(0-inf)", "setting": "[3]", "result": 871, "unit": "ng·h/mL"}, {"measurement": "Vd", "setting": "[4]", "result": 10, "unit": "L/kg"}, {"measurement": "GI50", "setting": "NCI-H292", "result": 0.35, "unit": "µM"}, {"measurement": "IC50", "setting": "[5]", "result": "> 3", "unit": "µM"}, {"measurement": "Tmax", "setting": "[6]", "result": 5, "unit": "h"}, {"measurement": "clearance", "setting": "[7]", "result": 20, "unit": "mL/min/kg"}, {"measurement": "IC50", "setting": "[8]", "result": 0.02, "unit": "µM"}, {"measurement": "IC50", "setting": "[9]", "result": 0.002, "unit": "µM"}, {"measurement": "AUC(0-t) at 24 h", "setting": "[10]", "result": 1790, "unit": "ng·h/mL"}, {"measurement": "Activity", "setting": "[11]", "result": "Non-Toxic"}]}]}
